From ChEMBL document CHEMBL1201862, “PubChem BioAssay data set” (2004) come the findings set out here.

A word on the IC50: it is the concentration at which inhibition is half-maximal.

Holding throughout (assay type): functional
For experiment [1], the target named is T1, High affinity choline transporter 1 (Homo sapiens, UniProt Q9GZV3).
T1 sequence (Q9GZV3 whole entry): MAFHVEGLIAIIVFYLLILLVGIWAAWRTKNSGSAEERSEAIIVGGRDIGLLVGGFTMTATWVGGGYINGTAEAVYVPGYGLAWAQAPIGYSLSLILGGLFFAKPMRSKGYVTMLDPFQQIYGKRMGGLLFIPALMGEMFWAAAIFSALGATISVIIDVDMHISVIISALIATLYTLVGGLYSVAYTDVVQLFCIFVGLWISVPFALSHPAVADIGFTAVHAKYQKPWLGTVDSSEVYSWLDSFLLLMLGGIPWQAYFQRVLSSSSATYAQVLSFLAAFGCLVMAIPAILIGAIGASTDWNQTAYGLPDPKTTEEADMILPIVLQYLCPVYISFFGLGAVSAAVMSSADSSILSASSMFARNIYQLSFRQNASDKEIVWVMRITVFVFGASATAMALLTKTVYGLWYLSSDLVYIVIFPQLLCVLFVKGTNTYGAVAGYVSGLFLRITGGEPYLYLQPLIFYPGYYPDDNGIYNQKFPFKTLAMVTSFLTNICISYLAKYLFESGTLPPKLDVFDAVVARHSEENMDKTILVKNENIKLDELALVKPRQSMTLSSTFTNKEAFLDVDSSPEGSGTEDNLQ
Kind of experiment: CHT inhibitors, dose response, cell-based, 5-point CRC, membrane potential dye (AID 504840).

The target in experiment [2] is T1, High affinity choline transporter 1. Kind of experiment: CHT inhibitors, dose response, cell-based, 10-point CRC, membrane potential dye (AID 588401).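 Further: membrane potential dye fluorescence of choline-evoked depolarization via CHT.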
Experiment [3] deals with Melanin-concentrating hormone receptor 1 (Homo sapiens, UniProt Q99705). Kind of experiment: Late-stage fluorescence-based counterscreen for antagonists of the G-protein coupled receptor 7 (GPR7): cell-based dose response assay to identify antagonists of the melanin-concentrating hormone receptor 1 (MCHR1) Set 5. (Counterscreens check selectivity or assay interference.)

Experiment [4] deals with T2, Neuropeptides B/W receptor type 1 (Homo sapiens, UniProt P48145).
T2 sequence (P48145 whole entry): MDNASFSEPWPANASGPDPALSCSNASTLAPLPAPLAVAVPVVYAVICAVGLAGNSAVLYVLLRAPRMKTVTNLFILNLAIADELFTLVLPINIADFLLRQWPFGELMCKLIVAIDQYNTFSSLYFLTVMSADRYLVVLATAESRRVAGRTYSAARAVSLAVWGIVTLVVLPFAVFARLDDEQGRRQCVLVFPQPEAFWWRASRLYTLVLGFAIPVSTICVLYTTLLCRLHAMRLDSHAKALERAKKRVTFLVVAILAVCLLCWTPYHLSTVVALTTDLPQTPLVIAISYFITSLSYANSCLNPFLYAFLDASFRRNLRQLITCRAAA
Kind of experiment: GPR7 antagonist potency, late-stage follow-up, cell-based, fluorescence, dose response, set 5 (AID 588566).

Calls of active or inactive are those of the source.

Sequence of Melanin-concentrating hormone receptor 1 (Q99705 whole entry): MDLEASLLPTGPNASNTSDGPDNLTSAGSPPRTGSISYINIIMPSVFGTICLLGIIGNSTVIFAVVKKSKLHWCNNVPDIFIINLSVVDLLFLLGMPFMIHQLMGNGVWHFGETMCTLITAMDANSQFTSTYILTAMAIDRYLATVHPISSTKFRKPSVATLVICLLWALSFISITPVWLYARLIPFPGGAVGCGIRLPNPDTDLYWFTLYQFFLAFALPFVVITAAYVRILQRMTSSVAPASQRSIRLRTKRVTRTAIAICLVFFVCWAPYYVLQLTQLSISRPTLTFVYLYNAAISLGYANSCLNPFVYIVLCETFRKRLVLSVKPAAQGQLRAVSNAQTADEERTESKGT

As to `CCOc1ccccc1Nc1ccc2nonc2c1[N+](=O)[O-]`, the IC50 is 7.88 µM (active) in experiment [1] and 4.28 µM (active) in experiment [2].
Consider `Cc1ccc(Oc2c(Cl)cnn(Cc3cccc4ccccc34)c2=O)cc1`, for which the half-inhibitory concentration (IC50) is 8.23 µM (active) in experiment [3] and 2.57 µM (active) in experiment [4].
